Assay results: patent publication US7875645B2, “Method for the treatment of CNS disorders with substituted 2-imidazoles or imidazole derivatives” (Hoffman-La Roche Inc., priority 2006, dated 2011)
Counter-ions that a name gives are not always drawn.

Key:
TAAR1 = target: T1, TAAR1 (Mus musculus, UniProt Q923Y8); experiment: Radioligand binding assay on membranes of HEK293 cells stably expressing TAAR1; conditions: mouse TAAR1; radioligand [3H]-rac-2-(1,2,3,4-tetrahydro-1-naphthyl)-2-imidazoline at 60 nM; 4° C., 30 min
T1 construct: expressed in transfected cells; host or cells: HEK293 (ATCC # CRL-1573), stably transfected with pIRESneo2 expression plasmid; membranes prepared
T1 sequence (Q923Y8 whole entry): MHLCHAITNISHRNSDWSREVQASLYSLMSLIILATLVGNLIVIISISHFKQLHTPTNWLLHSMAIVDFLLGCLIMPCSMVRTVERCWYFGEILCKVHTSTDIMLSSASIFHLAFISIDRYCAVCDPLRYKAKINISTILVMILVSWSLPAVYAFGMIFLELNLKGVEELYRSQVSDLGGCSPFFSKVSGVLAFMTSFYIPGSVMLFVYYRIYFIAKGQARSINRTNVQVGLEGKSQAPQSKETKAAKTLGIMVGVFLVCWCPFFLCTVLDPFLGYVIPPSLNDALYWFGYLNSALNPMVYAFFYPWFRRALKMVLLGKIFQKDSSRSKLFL
Experimental: For the construction of expression plasmids the coding sequences of human, rat and mouse TAAR 1 were amplified from genomic DNA essentially as described by Lindemann et al.. The Expand High Fidelity PCR System (Roche Diagnostics) was used with 1.5 mM Mg^2+ and purified PCR products were cloned into pCR2.1-TOPO cloning vector (Invitrogen) following the instructions of the manufacturer. PCR products were subcloned into the pIRESneo2 vector (BD Clontech, Palo Alto, Calif.), and expression vectors were sequence verified before introduction in cell lines.
For the generation of stably transfected cell lines HEK293 cells were transfected with the pIRESneo2 expression plasmids containing the TAAR coding sequences (described above) with Lipofectamine 2000 (Invitrogen) according to the instructions of the manufacturer, and 24 hrs post transfection the culture medium was supplemented with 1 mg/ml G418 (Sigma, Buchs, Switzerland). After a culture period of about 10 d clones were isolated, expanded and tested for responsiveness to trace amines (all compounds purchased from Sigma) with the cAMP Biotrak Enzyme immunoassay (EIA) System (Amersham) following the non-acetylation EIA procedure provided by the manufacturer.
Cells at confluence were rinsed with ice-cold phosphate buffered saline without Ca^2+ and Mg^2+ containing 10 mM EDTA and pelleted by centrifugation at 1000 rpm for 5 min at 4° C. The pellet was then washed twice with ice-cold phosphate buffered saline and cell pellet was frozen immediately by immersion in liquid nitrogen and stored until use at −80° C. Cell pellet was then suspended in 20 ml HEPES-NaOH (20 mM), pH 7.4 containing 10 mM EDTA, and homogenized with a Polytron (PT 3000, Kinematica) at 10,000 rpm for 10 s. The homogenate was centrifuged at 48,000×g for 30 min at 4° C. and the pellet resuspended in 20 ml HEPES-NaOH (20 mM), pH 7.4 containing 0.1 mM EDTA (buffer A), and homogenized with a Polytron at 10,000 rpm for 10 s. The homogenate was then centrifuged at 48,000×g for 30 min at 4° C. and the pellet resuspended in 20 ml buffer A, and homogenized with a Polytron at 10,000 rpm for 10 s. Protein concentration was determined by the method of Pierce (Rockford, Ill.). The homogenate was then centrifuged at 48,000×g for 10 min at 4° C., resuspended in HEPES-NaOH (20 mM), pH 7.0 including MgCl2 (10 mM) and […] homogenized with a Polytron at 10,000 rpm for 10 s.
Binding assay was performed at 4° C. in a final volume of 1 ml, and with an incubation time of 30 min. […] Non-specific binding was defined as the amount of [^3H]-rac-2-(1,2,3,4-tetrahydro-1-naphthyl)-2-imidazoline bound in the presence of the appropriate unlabelled ligand (10 μM). Competing ligands were tested in a wide range of concentrations (10 pM-30 μM). […] Each experiment was performed in duplicate. Al incubations were terminated by rapid filtration through UniFilter-96 plates (Packard Instrument Company) and glass filter GF/C, pre-soaked for at least 2 h in polyethylenimine 0.3%, and using a Filtermate 96 Cell Harvester (Packard Instrument Company). The tubes and filters were then washed 3 times with 1 ml aliquots of cold buffer B. Filters were not dried and soaked in Ultima gold (45 μl/well, Packard Instrument Company) and bound radioactivity was counted by a TopCount Microplate Scintillation Counter (Packard Instrument Company).

Compound	Ki (TAAR1) [µM]	melting point [°C]
Brc1ccc(CC2=NCCN2)c2ccccc12 [Example 104, 2-(4-Bromo-naphthalen-1-ylmethyl)-4,5-dihydro-1H-imidazole]	0.008	133 to 135
COc1c(CC2=NCCN2)ccc2occc12 [Example 169, 2-(4-Methoxy-benzofuran-5-ylmethyl)-4,5-dihydro-1H-imidazole hydrochloride]	0.045	–
c1cc2ccc(CC3=NCCN3)cc2o1 [Example 170, 2-Benzofuran-6-ylmethyl-4,5-dihydro-1H-imidazole hydrochloride]	0.026	–
Oc1ccc2ccccc2c1CC1=NCCN1 [Example 172, 1-(4,5-Dihydro-1H-imidazol-2-ylmethyl)-naphthalen-2-ol hydrochloride]	0.05	–
Brc1c(CC2=NCCN2)ccc2ccccc12 [Example 175, 2-(1-Bromo-naphthalen-2-ylmethyl)-4,5-dihydro-1H-imidazole]	0.011	–
Clc1cccc(I)c1CC1=NCCN1 [Example 187, 2-(2-Chloro-6-iodo-benzyl)-4,5-dihydro-1H-imidazole]	0.016	–
CCc1ccc(Cl)c(CC)c1CC1=NCCN1 [Example 196, 2-(3-Chloro-2,6-diethyl-benzyl)-4,5-dihydro-1H-imidazole]	0.023	–
CCc1c(Cl)ccc(F)c1CC1=NCCN1 [Example 198, 2-(3-Chloro-2-ethyl-6-fluoro-benzyl)-4,5-dihydro-1H-imidazole]	0.036	–
CCc1ccc(F)c(CC)c1Cc1ncc[nH]1 [Example 202, 2-(2,6-Diethyl-3-fluoro-benzyl)-1H-imidazole]	0.034	–
CCc1ccc(OC)c(CC)c1CC1=NCCN1 [Example 206, 2-(2,6-Diethyl-3-methoxy-benzyl)-4,5-dihydro-1H-imidazole]	0.038	–
CCc1cc(OC)cc(CC)c1Cc1ncc[nH]1 [Example 210, 2-(2,6-Diethyl-4-methoxy-benzyl)-1H-imidazole]	0.048	–
CCOc1cc(CC)c(Cc2ncc[nH]2)c(CC)c1 [Example 215, 2-(4-Ethoxy-2,6-diethyl-benzyl)-1H-imidazole]	0.029	–
CCOc1ccc(CC)c(Cc2ncc[nH]2)c1CC [Example 217, 2-(3-Ethoxy-2,6-diethyl-benzyl)-1H-imidazole]	0.024	–
CCc1ccc(OCc2ccccc2)c(CC)c1Cc1ncc[nH]1 [Example 218, 2-(3-Benzyloxy-2,6-diethyl-benzyl)-1H-imidazole]	0.047	–
CCc1cc(Oc2ccccc2)cc(CC)c1Cc1ncc[nH]1 [Example 219, 2-(2,6-Diethyl-4-phenoxy-benzyl)-1H-imidazole]	0.012	–
CCc1ccc(Oc2ccccc2)c(CC)c1Cc1ncc[nH]1 [Example 220, 2-(2,6-Diethyl-3-phenoxy-benzyl)-1H-imidazole]	0.013	–
